Assay results as given in US20250177363A1, “SUBSTITUTED IMIDAZOPYRIDINYL COMPOUNDS USEFUL AS INHIBITORS OF TLR9” (Bristol-Myers Squibb Company, priority 2022, published 2025).

Assays:
Type in all cases: cell-based
human TLR7 = molecular target: T1, human TLR7 (Homo sapiens, UniProt Q9NYK1); experiment: TLR7 inhibition reporter assay (HEK-Blue, SEAP); details: HEK-Blue cells overexpressing human TLR7, ligand gardiquimod 2.5 μM, 22 hour incubation
T1 construct: host or cells: HEK-Blue cells
T1 sequence (Q9NYK1 27-1049): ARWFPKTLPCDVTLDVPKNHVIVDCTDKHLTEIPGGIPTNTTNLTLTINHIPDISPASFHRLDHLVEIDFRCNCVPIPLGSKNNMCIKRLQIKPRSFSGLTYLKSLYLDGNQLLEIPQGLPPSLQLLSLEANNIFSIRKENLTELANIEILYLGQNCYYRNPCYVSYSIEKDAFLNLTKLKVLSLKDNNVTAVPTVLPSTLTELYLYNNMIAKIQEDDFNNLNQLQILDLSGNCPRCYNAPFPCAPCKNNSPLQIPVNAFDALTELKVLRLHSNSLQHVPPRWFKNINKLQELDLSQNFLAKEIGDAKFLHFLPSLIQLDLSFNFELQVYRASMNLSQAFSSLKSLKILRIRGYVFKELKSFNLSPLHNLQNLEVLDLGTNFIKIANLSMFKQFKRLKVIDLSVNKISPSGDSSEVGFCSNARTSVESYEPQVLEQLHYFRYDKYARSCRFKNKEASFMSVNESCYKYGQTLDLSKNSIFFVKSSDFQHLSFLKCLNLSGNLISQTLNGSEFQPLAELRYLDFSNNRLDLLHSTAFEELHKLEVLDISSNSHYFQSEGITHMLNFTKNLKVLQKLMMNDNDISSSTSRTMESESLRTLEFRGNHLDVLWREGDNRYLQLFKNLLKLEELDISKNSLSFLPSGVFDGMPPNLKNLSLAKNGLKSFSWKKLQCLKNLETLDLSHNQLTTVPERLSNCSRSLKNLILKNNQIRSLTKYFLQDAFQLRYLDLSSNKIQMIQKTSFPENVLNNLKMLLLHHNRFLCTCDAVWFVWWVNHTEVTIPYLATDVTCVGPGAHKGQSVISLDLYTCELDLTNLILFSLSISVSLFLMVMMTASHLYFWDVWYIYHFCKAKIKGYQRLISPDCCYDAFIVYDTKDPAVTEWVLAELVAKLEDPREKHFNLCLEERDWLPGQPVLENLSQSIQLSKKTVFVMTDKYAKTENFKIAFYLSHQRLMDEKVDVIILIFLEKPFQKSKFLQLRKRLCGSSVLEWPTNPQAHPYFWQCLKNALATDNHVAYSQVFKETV
Procedure: (§1) TLR7/8/9 Inhibition Reporter Assays
(§2) HEK-Blue™-cells (Invivogen) overexpressing human TLR7. TLR8 or TLR9 receptors were used for screening inhibitors of these receptors using an inducible SEAP (secreted embryonic alkaline phosphatase) reporter gene under the control of the IFN-β minimal promoter fused to five NF-κB and AP-1-binding sites. Cells are seeded into Greiner 384 well plates (15000 cells per well) that are pre dispensed (by ECHO) with testing compounds in DMSO to yield a final dose response concentration range of 0.85 nM-50 μM. After a 60 minute compound pre-treatment in 37 degree incubator, the cells are then stimulated with a TLR7 ligand (gardiquimod at a final concentration of 2.5 μM), TLR8 ligand (R848 at a final concentration of 14.25 μM) or TLR9 ligand (ODN2006 at a final concentration of 200 nM) to activate NF-κB and AP-1 which induce the production of SEAP. After a 22 hour incubation at 37° C., 5% CO2, SEAP levels are determined with the addition of HEK-Blue™ Detection reagent (Invivogen), a cell culture medium that allows for detection of SEAP, according to manufacturer's specifications. The percent inhibition is determined as the % reduction in the HEK-Blue signal present in […].

human TLR9 = molecular target: T2, human TLR9 (Homo sapiens, UniProt Q9NR96); experiment: TLR9 inhibition reporter assay (HEK-Blue, SEAP); details: HEK-Blue cells overexpressing human TLR9, ligand ODN2006 200 nM, 22 hour incubation
T2 construct: host or cells: HEK-Blue cells
T2 sequence (Q9NR96 26-1032): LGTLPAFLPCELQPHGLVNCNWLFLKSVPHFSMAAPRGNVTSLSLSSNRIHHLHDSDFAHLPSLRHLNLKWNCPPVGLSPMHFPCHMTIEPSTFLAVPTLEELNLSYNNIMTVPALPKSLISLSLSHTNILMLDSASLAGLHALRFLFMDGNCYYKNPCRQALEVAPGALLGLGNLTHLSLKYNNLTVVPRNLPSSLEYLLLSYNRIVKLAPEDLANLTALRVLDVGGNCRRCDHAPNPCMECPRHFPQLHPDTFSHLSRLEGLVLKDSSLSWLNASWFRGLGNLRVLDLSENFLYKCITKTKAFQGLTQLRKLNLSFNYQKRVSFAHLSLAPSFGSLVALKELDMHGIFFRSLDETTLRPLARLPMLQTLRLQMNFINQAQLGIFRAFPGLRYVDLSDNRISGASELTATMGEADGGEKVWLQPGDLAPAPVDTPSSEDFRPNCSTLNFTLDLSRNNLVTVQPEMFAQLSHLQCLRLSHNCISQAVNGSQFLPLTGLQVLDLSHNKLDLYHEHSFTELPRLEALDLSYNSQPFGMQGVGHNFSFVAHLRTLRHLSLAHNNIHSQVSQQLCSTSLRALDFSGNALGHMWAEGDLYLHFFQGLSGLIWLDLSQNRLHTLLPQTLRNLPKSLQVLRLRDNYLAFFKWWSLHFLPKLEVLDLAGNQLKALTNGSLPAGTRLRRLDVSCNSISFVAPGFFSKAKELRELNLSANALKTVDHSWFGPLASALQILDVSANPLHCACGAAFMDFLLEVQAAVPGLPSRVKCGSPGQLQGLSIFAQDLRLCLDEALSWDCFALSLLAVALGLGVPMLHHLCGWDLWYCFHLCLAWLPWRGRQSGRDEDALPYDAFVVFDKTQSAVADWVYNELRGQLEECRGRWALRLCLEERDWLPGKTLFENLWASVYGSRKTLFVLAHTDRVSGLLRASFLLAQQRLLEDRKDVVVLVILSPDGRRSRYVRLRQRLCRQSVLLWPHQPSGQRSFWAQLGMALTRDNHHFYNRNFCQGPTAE
Procedure: as §1, §2

human TLR8 = molecular target: T3, human TLR8 (Homo sapiens, UniProt Q9NR97); experiment: TLR8 inhibition reporter assay (HEK-Blue, SEAP); details: HEK-Blue cells overexpressing human TLR8, ligand R848 14.25 μM, 22 hour incubation
T3 construct: host or cells: HEK-Blue cells
T3 sequence (Q9NR97 27-1041): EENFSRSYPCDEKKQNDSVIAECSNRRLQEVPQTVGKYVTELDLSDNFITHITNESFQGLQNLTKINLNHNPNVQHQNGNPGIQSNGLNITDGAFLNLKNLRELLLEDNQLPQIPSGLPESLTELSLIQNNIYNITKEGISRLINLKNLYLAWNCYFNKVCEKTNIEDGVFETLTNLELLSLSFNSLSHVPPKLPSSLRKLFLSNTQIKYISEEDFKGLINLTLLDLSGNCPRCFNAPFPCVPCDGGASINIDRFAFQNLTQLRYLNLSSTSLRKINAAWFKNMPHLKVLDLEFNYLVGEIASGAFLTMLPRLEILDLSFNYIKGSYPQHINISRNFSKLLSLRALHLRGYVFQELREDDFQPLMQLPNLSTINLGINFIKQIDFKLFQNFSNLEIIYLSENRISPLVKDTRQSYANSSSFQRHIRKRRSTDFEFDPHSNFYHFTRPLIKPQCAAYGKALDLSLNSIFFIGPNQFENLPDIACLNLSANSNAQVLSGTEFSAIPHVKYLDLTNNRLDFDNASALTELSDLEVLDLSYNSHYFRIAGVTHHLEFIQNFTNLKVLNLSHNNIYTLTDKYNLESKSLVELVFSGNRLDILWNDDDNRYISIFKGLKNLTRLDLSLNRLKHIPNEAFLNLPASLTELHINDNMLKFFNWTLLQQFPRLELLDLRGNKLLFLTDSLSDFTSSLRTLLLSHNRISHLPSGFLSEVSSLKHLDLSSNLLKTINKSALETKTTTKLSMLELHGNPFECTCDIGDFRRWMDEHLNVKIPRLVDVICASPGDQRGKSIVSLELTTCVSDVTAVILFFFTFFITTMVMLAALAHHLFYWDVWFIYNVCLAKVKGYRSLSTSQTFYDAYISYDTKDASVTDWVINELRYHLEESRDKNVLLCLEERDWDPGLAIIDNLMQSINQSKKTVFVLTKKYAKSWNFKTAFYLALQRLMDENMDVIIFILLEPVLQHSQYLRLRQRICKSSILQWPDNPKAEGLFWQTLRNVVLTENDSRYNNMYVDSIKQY
Procedure: as §1, §2

| SMILES | IC50 (human TLR7) [nM] | IC50 (human TLR9) [nM] | IC50 (human TLR8) [nM] |
| --- | --- | --- | --- |
| Cc1cc(-c2ccc(C3CCN(C)CC3)cc2)nc2c1nc(-c1ccc(S(C)(=O)=O)cc1)n2C1CC1 [Example 9, 3-cyclopropyl-7-methyl-5-(4-(1-methylpiperidin-4-yl)phenyl)-2-(4-(methylsulfonyl)phenyl)-3H-imidazo[4,5-b]pyridine] | 13000 | 1700 | > 50000 |
| COc1ccc(-c2nc3c(C)cc(-c4ccc(N5CCN(C(C)C)CC5)cc4)nc3n2C)cc1OC [Example 10, 2-(3,4-dimethoxyphenyl)-5-(4-(4-isopropylpiperazin-1-yl)phenyl)-3,7-dimethyl-3H-imidazo[4,5-b]pyridine] | 1900 | 750 | 17000 |
| COc1ccc(-c2nc3ncc(C4CCN(C5CCN(C6CC6)CC5)CC4)cc3[nH]2)cc1OC [Example 13, 6-(1′-cyclopropyl-[1,4′-bipiperidin]-4-yl)-2-(3,4-dimethoxyphenyl)-1H-imidazo[4,5-b]pyridine] | > 25000 | 1200 | > 25000 |
| CC(C)N1CCC(N2CCC(c3cnc4nc(-c5ccc(S(C)(=O)=O)cc5)n(C)c4c3)CC2)CC1 [Example 14, 6-(1′-isopropyl-[1,4′-bipiperidin]-4-yl)-1-methyl-2-(4-(methylsulfonyl)phenyl)-1H-imidazo[4,5-b]pyridine] | > 50000 | 3100 | > 50000 |
| CC(C)CN1CCC(N2CCC(c3cnc4nc(-c5ccc(S(C)(=O)=O)cc5)n(C)c4c3)CC2)CC1 [Example 15, 6-(1′-isobutyl-[1,4′-bipiperidin]-4-yl)-1-methyl-2-(4-(methylsulfonyl)phenyl)-1H-imidazo[4,5-b]pyridine] | 6400 | 160 | > 25000 |
| Cn1c(-c2ccc(S(C)(=O)=O)cc2)nc2ncc(C3CCN(C4CCN(C5CC5)CC4)CC3)cc21 [Example 16, 6-(1′-cyclopropyl-[1,4′-bipiperidin]-4-yl)-1-methyl-2-(4-(methylsulfonyl)phenyl)-1H-imidazo[4,5-b]pyridine] | > 25000 | 1400 | > 25000 |
| CC(C)N1CCC(N2CCC(c3ccc4nc(-c5ccc(S(C)(=O)=O)cc5)n(C)c4n3)CC2)CC1 [Example 17, 5-(1′-isopropyl-[1,4′-bipiperidin]-4-yl)-3-methyl-2-(4-(methylsulfonyl)phenyl)-3H-imidazo[4,5-b]pyridine] | 18000 | 71 | > 50000 |
| CC(C)CN1CCC(N2CCC(c3ccc4nc(-c5ccc(S(C)(=O)=O)cc5)n(C)c4n3)CC2)CC1 [Example 18, 5-(1′-isobutyl-[1,4′-bipiperidin]-4-yl)-3-methyl-2-(4-(methylsulfonyl)phenyl)-3H-imidazo[4,5-b]pyridine] | 2800 | 780 | > 25000 |
| Cn1c(-c2ccc(S(C)(=O)=O)cc2)nc2ccc(C3CCN(C4CCN(C5CC5)CC4)CC3)nc21 [Example 19, 5-(1′-cyclopropyl-[1,4′-bipiperidin]-4-yl)-3-methyl-2-(4-(methylsulfonyl)phenyl)-3H-imidazo[4,5-b]pyridine] | 18000 | 870 | > 25000 |
| Cc1cc(C2CCN(C3CCN(C(C)C)CC3)CC2)nc2c1nc(-c1ccc(S(C)(=O)=O)cc1)n2C [Example 20, 5-(1′-isopropyl-[1,4′-bipiperidin]-4-yl)-3,7-dimethyl-2-(4-(methylsulfonyl)phenyl)-3H-imidazo[4,5-b]pyridine] | 1400 | 25 | > 50000 |
| Cc1cc(C2CCN(C3CCN(CC(C)C)CC3)CC2)nc2c1nc(-c1ccc(S(C)(=O)=O)cc1)n2C [Example 21, 5-(1′-isobutyl-[1,4′-bipiperidin]-4-yl)-3,7-dimethyl-2-(4-(methylsulfonyl)phenyl)-3H-imidazo[4,5-b]pyridine] | 4400 | 24 | > 50000 |
| Cc1cc(C2CCN(C3CCN(CC(C)(C)O)CC3)CC2)nc2c1nc(-c1ccc(S(C)(=O)=O)cc1)n2C [Example 22, 1-(4-(3,7-dimethyl-2-(4-(methylsulfonyl)phenyl)-3H-imidazo[4,5-b]pyridin-5-yl)-[1,4′-bipiperidin]-1′-yl)-2-methylpropan-2-ol] | 1300 | 26 | > 25000 |
